Our source for the IC50 values is patent publication US9956293B2, “Targeted therapeutics” (Madrigal Pharmaceuticals, Inc., priority 2014, dated 2018).

The subject of this assay is HER2. Put plainly: HER2 degradation assay with BT-474 cell line (Example 12, FACS). In kind it is cell-based. To be noted: Homo sapiens. The text has this:
HER2 Degradation Assay with BT-474 Cell Line
HER2 has emerged as a key target for anticancer drugs due to its intrinsic involvement in the phosphatidylinositol-3-kinase-Akt/protein kinase B (PI3K-Akt) and the mitogen-activated protein kinase (MAPK) pathways, both of which suppress apoptosis and promote tumor cell survival, gene transcription, angiogenesis, cellular proliferation, migration, mitosis, and differentiation. The degradation of HER2 is a measure of efficacy of anticancer therapeutics that target Hsp90. Accordingly, the SDC-TRAP molecules of the invention that comprise a binding moiety that binds Hsp90 were tested in the following HER2 degradation assay.
BT-474 cells (human breast cancer cell line ATCC HTB-20) were obtained from ATCC and seeded into 12-well tissue culture plates at 0.2×10^6/1.8 mL/well. […] Each test compound was titrated in 4-fold dilutions from 5 μM to 78 nM with DMSO and 200 μL of the titration was added to each well of the cell plate. The DMSO final concentration was 0.2%. Cells were incubated overnight at 37° C. in 5% CO2.
Media was decanted from the plate, cells were washed 1× in PBS. 400 μL trypsin (EDTA) per well was added, and the cells were incubated for 2 to 3 minutes. Cells were collected into FACS tubes containing 1 ml culture medium to neutralize the trypsin and were centrifuged for 5 minutes at 1200 rpm. Supernatant was decanted and the cells were resuspended in 5 μL FITC (anti HER2/nu)/200 μL staining buffer (1×PBS+1% FBS+0.05% Sodium Azide)/tube. Controls were […] IgG isotype control and staining buffer only. Tubes were incubated for 30 minutes in the dark at room temperature. 1 mL staining buffer was added to each tube and the tubes were centrifuged for 6 minutes at 1200 rpm. The supernatant was decanted and 300 μL staining buffer was added to each tube, which was store at 4° C. for FACS (cytometer) analysis. The cytometer readout was normalized and the potency of each compound is evaluated with IC50 calculated with XLfit™ software.

Setting [1] is: BT-474, SDC-TRAPs of the 43rd table.

Turning to `CC(C)c1cc(-c2nnc(O)n2-c2ccc(CC(=O)N(C)CCOC(=O)Nc3cccc4c3CN(C3CCC(=O)NC3=O)C4=O)cc2)c(O)cc1O` (centres unmarked) [SDC-TRAP-0127, 2-(2-(4-(3-(2,4-di hydroxy-5-isopropylphenyl)-5-hydroxy-4H-1,2,4-triazol-4-yl)phenyl)-N-methylacetamido)ethyl(2-(2,6-dioxopiperidin-3-yl)-1-oxoisoindolin-4-yl)carbamate], the IC50 (BT-474 cells) came to 8090 nM. As to `CCc1c2c(nc3ccc(OCC(=O)N4CCN(Cc5ccc(-n6c(O)nnc6-c6cc(C(C)C)c(O)cc6O)cc5)CC4)cc13)-c1cc3c(c(=O)n1C2)COC(=O)C3(O)CC` (centres unmarked) [SDC-TRAP-0077, 9-(2-(4-(4-(3-(2,4-dihydroxy-5-isopropylphenyl)-5-hydroxy-4H-1,2,4-triazol-4-yl)benzyl)piperazin-1-yl)-2-oxoethoxy)-4,11-diethyl-4-hydroxy-1H-pyrano[3′,4′:6, 7]indolizino[1,2-b]quinoline-3,14(4H,12H)-dione], the 50% inhibitory concentration (IC50) under setting [1] was 2790 nM. `CC(C)c1cc(-c2nnc(O)n2-c2ccc3c(ccn3CCOCCNC(=O)O[C@H]3CC[C@@]4(C)C(=CC[C@@H]5[C@@H]4CC[C@]4(C)C(c6cccnc6)=CC[C@@H]54)C3)c2)c(O)cc1O` [SDC-TRAP-0151, (3S,8R,9S,10R,13S,14S)-10,13-dimethyl-17-(pyridin-3-yl)-2,3,4,7,8,9,10,11,12,13,14,15-dodecahydro-1H-cyclopenta[a]phenanthren-3-yl (2-(2-(5-(3-(2,4-dihydroxy-5-isopropylphenyl)-5-hydroxy-4H-1,2,4-triazol-4-yl)-1H-indol-1-yl)ethoxy)ethyl)carbamate] displayed a 50% inhibitory concentration (IC50) (BT-474 cells) of 1190 nM. For the setting “BT-474 cells”, `CCNC(=O)c1nnc(-c2cc(C(C)C)c(O)cc2O)n1-c1ccc(CN2CCC(C(=O)N(C)CCCOC(=O)Nc3cccc4c3CN(C3CCC(=O)NC3=O)C4=O)CC2)cc1` (centres unmarked) [SDC-TRAP-0231, 3-(1-(4-(3-(2,4-dihydroxy-5-isopropylphenyl)-5-(ethylcarbamoyl)-4H-1,2,4-triazol-4-yl)benzyl)-N-methylpiperidine-4-carboxamido)propyl (2-(2,6-dioxopiperidin-3-yl)-1-oxoisoindolin-4-yl)carbamate] returned an IC50 of 696 nM.

For the setting “BT-474, SDC-TRAPs of the 52nd table”, `COc1ccc(-c2cnoc2-c2cc(OC)c(OC)c(OC)c2)cc1OC(=O)N1CCN(c2ccc(-n3c(O)nnc3-c3cc(C(C)C)c(O)cc3O)cc2)CC1` [SDC-TRAP-0099, 2-methoxy-5-(5-(3,4,5-trimethoxyphenyl)isoxazol-4-yl)phenyl-4-(4-(3-(2,4-dihydroxy-5-isopropylphenyl)-5-hydroxy-4H-1,2,4-triazol-4-yl)phenyl)piperazine-1-carboxylate] returned a half-inhibitory concentration (IC50) of 677 nM. In the case of `CCNC(=O)c1nnc(-c2cc(C(C)C)c(O)cc2O)n1-c1ccc(C(=O)N[C@@H](C)C(=O)Nc2cccc3c2CN(C2CCC(=O)NC2=O)C3=O)cc1` (stereo partly drawn) [SDC-TRAP-0166, 5-(2,4-dihydroxy-5-isopropylphenyl)-4-(4-(((2S)-1-((2-(2,6-dioxopiperidin-3-yl)-1-oxoisoindolin-4-yl)amino)-1-oxopropan-2-yl)carbamoyl)phenyl)-N-ethyl-4H-1,2,4-triazole-3-carboxamide], the IC50 (BT-474 cells) is > 5000 nM. Still for that read-out and setting: to `CC(C)c1cc(-c2nnc(O)n2-c2ccc(CN3CCN(C(=O)O[C@H]4CC[C@@]5(C)C(=CC[C@@H]6[C@@H]5CC[C@]5(C)C(c7cccnc7)=CC[C@@H]65)C4)CC3)cc2)c(O)cc1O` [SDC-TRAP-0150, (3S,8R,9S,10R,13S,14S)-10,13-dimethyl-17-(pyridin-3-yl)-2,3,4,7,8,9,10,11,12,13,14,15-dodecahydro-1H-cyclopenta[a]phenanthren-3-yl 4-(4-(3-(2,4-dihydroxy-5-isopropylphenyl)-5-hydroxy-4H-1,2,4-triazol-4-yl)benzyl) piperazine-1-carboxylate] belongs 1410 nM.

Turning to `CC(C)c1cc(-c2nnc(O)n2-c2ccc(N3CCN(C(=O)N4CCC(n5cc(-c6cnc(N)c(O[C@H](C)c7c(Cl)ccc(F)c7Cl)c6)cn5)CC4)CC3)cc2)c(O)cc1O` [SDC-TRAP-0138, (R)-(4-(4-(6-amino-5-(1-(2,6-dichloro-3-fluorophenyl)ethoxy)pyridin-3-yl)-1H-pyrazol-1-yl)piperidin-1-yl)(4-(4-(3-(2,4-dihydroxy-5-isopropylphenyl)-5-hydroxy-4H-1,2,4-triazol-4-yl)phenyl)piperazin-1-yl)methanone], half-maximal inhibition (BT-474 cells) (IC50) was put at 707 nM.

`CC(C)c1cc(-c2nnc(O)n2-c2ccc3c(ccn3CCN(C)C(=O)CCn3cc(F)c(=O)[nH]c3=O)c2)c(O)cc1O` [SDC-TRAP-0051, N-(2-(5-(3-(2,4-dihydroxy-5-isopropylphenyl)-5-hydroxy-4H-1,2,4-triazol-4-yl)-1H-indol-1-yl)ethyl)-3-(5-fluoro-2,4-dioxo-3,4-dihydropyrimidin-1(2H)-yl)-N-methylpropanamide]: under “BT-474 cells”, the IC50 was > 5000 nM.

`CCNC(=O)c1nnc(-c2cc(C(C)C)c(O)cc2O)n1-c1ccc(CN2CCC(C(=O)N3CCC(n4cc(-c5cnc(N)c(O[C@H](C)c6c(Cl)ccc(F)c6Cl)c5)cn4)CC3)CC2)cc1` [SDC-TRAP-0134, (R)-4-(4-((4-(4-(4-(6-amino-5-(1-(2,6-dichloro-3-fluorophenyl)ethoxy)pyridin-3-yl)-1H-pyrazol-1-yl)piperidine-1-carbonyl)piperidin-1-yl)methyl)phenyl)-5-(2,4-dihydroxy-5-isopropylphenyl)-N-ethyl-4H-1,2,4-triazole-3-carboxamide] yielded an IC50 (BT-474 cells) of 77 nM. Regarding `CCc1c2c(nc3ccc(O)cc13)-c1cc3c(c(=O)n1C2)COC(=O)C3(CC)OC(=O)N(C)CCCCN1CCN(Cc2ccc(-n3c(O)nnc3-c3cc(C(C)C)c(O)cc3O)cc2)CC1` (centres unmarked) [SDC-TRAP-0055, 4,11-diethyl-9-hydroxy-3,14-dioxo-3,4,12,14-tetrahydro-1H-pyrano[3′,4′:6,7]indolizino[1,2-b]quinolin-4-yl (4-(4-(4-(3-(2,4-dihydroxy-5-isopropylphenyl)-5-hydroxy-4H-1,2,4-triazol-4-yl)benzyl)piperazin-1-yl)butyl)(methyl)carbamate], inhibition under setting [1] was half-maximal at 402 nM (IC50).

In the case of `CC(C)c1cc(-c2nnc(O)n2-c2ccc(N3CCN(C(=O)c4ccc(COC(=O)Nc5cccc6c5CN(C5CCC(=O)NC5=O)C6=O)cc4)CC3)nc2)c(O)cc1O` (centres unmarked) [SDC-TRAP-0175, 4-(4-(5-(3-(2,4-dihydroxy-5-isopropylphenyl)-5-hydroxy-4H-1,2,4-triazol-4-yl)pyridin-2-yl)piperazine-1-carbonyl)benzyl (2-(2,6-dioxopiperidin-3-yl)-1-oxoisoindolin-4-yl)carbamate], the half-inhibitory concentration (IC50) (BT-474 cells) is 2630 nM. In the case of `CCNC(=O)c1nnc(-c2cc(C(C)C)c(O)cc2O)n1-c1ccc(C(=O)N2CCC(CCOC(=O)Nc3cccc4c3CN(C3CCC(=O)NC3=O)C4=O)CC2)cc1` (centres unmarked) [SDC-TRAP-0140, 2-(1-(4-(3-(2,4-dihydroxy-5-isopropylphenyl)-5-(ethylcarbamoyl)-4H-1,2,4-triazol-4-yl)benzoyl)piperidin-4-yl)ethyl(2-(2,6-dioxopiperidin-3-yl)-1-oxoisoindolin-4-yl)carbamate], the IC50 (BT-474 cells) was > 5000 nM. On the same count and under the same terms, to `CC(C)c1cc(-c2nnc(O)n2-c2ccc(CN3CCN(C(=O)Nc4cccc5c4CN(C4CCC(=O)NC4=O)C5=O)CC3)cc2)c(O)cc1O` (centres unmarked) [SDC-TRAP-0109, 4-(4-(3-(2,4-di hydroxy-5-isopropylphenyl)-5-hydroxy-4H-1,2,4-triazol-4-yl)benzyl)-N-(2-(2,6-dioxopiperidin-3-yl)-1-oxoisoindolin-4-yl)piperazine-1-carboxamide] belongs > 10000 nM. The same measure, in the same setting: the result for `CC(C)c1cc(-c2nnc(O)n2-c2ccc3c(ccn3CCOC(=O)Nc3cccc4c3CN(C3CCC(=O)NC3=O)C4=O)c2)c(O)cc1O` (centres unmarked) [SDC-TRAP-0122, 2-(5-(3-(2,4-dihydroxy-5-isopropylphenyl)-5-hydroxy-4H-1,2,4-triazol-4-yl)-1H-indol-1-yl)ethyl (2-(2,6-dioxopiperidin-3-yl)-1-oxoisoindolin-4-yl)carbamate] reads > 10000 nM; that for `CCNC(=O)c1nnc(-c2cc(C(C)C)c(O)cc2O)n1-c1ccc(C(=O)N(C)CC(=O)N2CCC(n3cc(-c4cnc(N)c(O[C@H](C)c5c(Cl)ccc(F)c5Cl)c4)cn3)CC2)cc1` [SDC-TRAP-0139, (R)-4-(4-((2-(4-(4-(6-amino-5-(1-(2,6-dichloro-3-fluorophenyl)ethoxy)pyridin-3-yl)-1H-pyrazol-1-yl)piperidin-1-yl)-2-oxoethyl)(methyl)carbamoyl)phenyl)-5-(2,4-dihydroxy-5-isopropylphenyl)-N-ethyl-4H-1,2,4-triazole-3-carboxamide], 1000 to 2000 nM; that for `CCNC(=O)c1nnc(-c2cc(C(C)C)c(O)cc2O)n1-c1ccc(C(=O)N2CCC[C@H]2C(=O)Nc2cccc3c2CN(C2CCC(=O)NC2=O)C3=O)cc1` (stereo partly drawn) [SDC-TRAP-0190, 5-(2,4-dihydroxy-5-isopropylphenyl)-4-(4-((2S)-2-((2-(2,6-dioxopiperidin-3-yl)-1-oxoisoindolin-4-yl)carbamoyl)pyrrolidine-1-carbonyl)phenyl)-N-ethyl-4H-1,2,4-triazole-3-carboxamide], > 5000 nM.

Usually IC50 stands for the concentration needed to halve the response being measured.
